Results on three molecules are retold here after patent publication US20240407363A1 (priority 2021, published 2024).

For assay [1], the system named is Xanthomonas perforans. The experiment in a line: Field trials on piperidine and pyrrolidine, bacterial spot of tomato, foliar spray. The class given is in vivo. Conditions: for AUDPC / BS last rating of bacterial spot severity / YIELD: foliar spray at the concentration given with each treatment; for increase of marketable tomato fruit yield compared to the untreated control (CK) / bacterial spot disease severity and AUDPC compared to the untreated control (CK): pyrrolidine at 128 mg/ml; for bacterial spot disease severity and AUDPC compared to the untreated control (CK): foliar sprays, both independent trials, 2021-2022. From the text: Tomato seedlings were transplanted in fall for the first trial (trial 1) and spring for the second trial (trial 2). Treatments were started about two weeks after transplanting following weekly applications for a total of eight weeks. Tomato plants were inoculated with the pathogen Xanthomonas perforans (1-5×10^6 cfu/ml) the following day in the afternoon after the third treatment. Disease severity was rated weekly when bacterial spot symptoms were observed, and area under the disease progress curve (AUDPC) was calculated. Tomato fruit were harvested two to three times for each trial and graded according to the USDA standard. Total fruit yield in each treatment and the untreated control (CK) was subjected to statistical analysis using SAS (version 9.2, SAS Institute Inc., Cary, NC, USA). Disease severity of last rating and AUDPC from each trial were analyzed and presented.
All treatments were applied through a foliar spray at specified concentrations. Piperidine and pyrrolidine were evaluated in two independent trials. Tomato cultivar was ‘Red bounty’ in trial 1, and ‘Varsity’ in trial 2.

In assay [2] the test system is X. perforans (a copper-resistant strain QL). The experiment in a line: Greenhouse experiment, bacterial spot of tomato (cv. FL 47), compounds sprayed approx. 2 h before inoculation. The format is in vivo. Conditions: for BS1 average disease severity of bacterial spot on two mostly infected leaves / WHOLE1 disease severity over the whole plant: 10 d after inoculation; for BS2 average disease severity of bacterial spot on two mostly infected leaves / WHOLE2 disease severity over the whole plant: 12 d after inoculation; for BS3 average disease severity of bacterial spot on two mostly infected leaves / WHOLE3 disease severity over the whole plant: 14 d after inoculation; for AUDPC_BS: two mostly infected leaves, 10, 12, 14 days after inoculation; for AUDPC_WHOLE: whole plant, 10, 12, 14 days after inoculation. Here is the method:
Tomato (cv. FL 47) was seeded in the greenhouse (the highest temperature was set at 82° F.) and the seedlings with two fully expanded leaves (about 3 weeks after seeding) were transplanted to soilless mix in 6-inch pots. One week after transplanting, treatments with the compounds at the test concentrations were sprayed onto plants until runoff approx. 2 h before inoculation with X. perforans. Untreated plants were used as the control (CK). There were five plants in each treatment and one plant served as one replicate. All plants were inoculated by spraying a bacterial suspension of X. perforans (a copper-resistant strain QL) at 1×10^8 CFU/ml until runoff. Inoculated plants were incubated in a moist chamber overnight (approx. 18 h) to ensure and promote infection by X. perforans. Then the inoculated plants were taken out and placed randomly on a bench inside the greenhouse for disease development. Plants were sprayed with mist periodically to stimulate disease development. When lesions on the leaves were apparent, the percentage of leaf area covered by the lesions, either for the two mostly infected leaves or the whole plant, was rated and recorded for each treatment. Disease rating was conducted at least two times. The area under the disease progress curve (AUDPC) was calculated for each treatment to reflect the disease development over a period if disease rating was carried out three times or more.

Assay [3] concerns X. perforans GEV-485. The experiment in a line: In vitro MIC and MBC determination in nutrient broth / on NA plates. The format is cell-based. Conditions: three trials. Here is the method:
X. perforans strain GEV-485, a copper-resistant strain, was used in this study to evaluate the antibacterial activity of Hx. Working cultures of GEV-485 were retrieved from −80° C. storage vials containing bacterial suspensions in 30% glycerol (v/v). Bacterial cells were taken from the storage, streaked on nutrient agar (NA; Difco™ Sparks, MD) plates and incubated for 48 h at 28° C. and single colonies were picked and streaked on NA plates to ensure bacterial purity for further cultures. NA amended with copper (II) sulfate pentahydrate (CuSO4·5H2O) (Fisher Scientific-Hampton, NH) at 20 ppm, was used as copper tolerance selective agent. To prepare the bacterial inoculum, a single bacterial colony was streaked on NA and incubated for 24 h at 28° C. From those plates, loops of bacterial cells were collected and resuspended in SDW amended with 0.01 M MgSO4. The bacterial concentration was adjusted to ˜5.0×10^8 colony-forming units (CFU)/mL based on an optical density (OD) of 0.3 at 600 nm. The in vitro studies were conducted to determine the minimum inhibitory concentration (MIC), minimum bactericidal concentration (MBC), and the antibacterial activity at different time points.
To determine MIC of Hx against X. perforans GEV-485, individual 96-well plates containing 100 μL of nutrient broth (NB) with varied copper and Hx concentrations were inoculated with 100 μL of the GEV-485 suspension at the concentration of 1.0×10^8 CFU/mL. The final chemical concentrations on the wells were 16, 32, 64, 128, 256, 512, 1024, 2048, 4096 and 8192 mg/L. Three wells with 100 µL of NB and 100 μL of the bacterial suspension were the controls. Solutions in all wells were thoroughly mixed by pipetting. The plate was, then, covered with a lid and incubated under stationary conditions at 28° C. for 24 h. The value of MIC for Hx and copper was determined as the minimum concentration (mg/L), at which the bacterial growth was inhibited (the solution was clear), among all tested concentrations of each chemical. After MIC was determined, an aliquot of 20 μL of the solution from the wells that gave a clear solution was plated on NA. […] The MBC was determined as the minimum concentration, at which >99.9% of the initial bacterial populations were killed and no visible growth of the bacterium was observed on the NA plates among all tested concentrations of antimicrobial agents. The experiment was repeated two more times, with three replications for each treatment.

[4] abbreviates: first value named of two independent trials, piperidine at 64 mg/ml.
Setting [5] is: second value named of two independent trials, piperidine at 64 mg/ml.

On to `C1CCNCC1` [Piperidine, piperidine], for which, in assay [1] (Trial 1, cv. Red bounty), the AUDPC was determined as 495.9 bc, the “BS last rating of bacterial spot severity” value (from here on “BS last rating”) was determined as 34.6 b % and the YIELD is given as 3.88 a kg/plant. Moreover, in assay [1] (Trial 2, cv. Varsity), the AUDPC is on record as 394.9 b, the “BS last rating” value is 23.8 b % and the YIELD turned out to be 4.38 a kg/plant. Further, the “increase of marketable tomato fruit yield compared to the untreated control (CK)” value (“increase” for short) in assay [1] (setting [4]) is recorded as 15.5%. Further, in assay [1] (piperidine at 64 mg/ml, foliar spray), the “effect on disease reduction compared to ManKocide at the label rate of 2.1 mg/ml” value was “even better than ManKocide®”. Also, the “bacterial spot disease severity and AUDPC compared to the untreated control (CK)” value in assay [1] (piperidine at 64 mg/ml) is “significantly (P<0.05) reduced bacterial spot disease severity at the last rating and the overall disease progress”. Further, the “increase” value in assay [1] (setting [5]) is 17.6%. In assay [2] (32 mg/L = 32 ppm), the “BS1 average disease severity of bacterial spot on two mostly infected leaves” value (“BS1 average disease severity” below) is on record as 24.5 a, the “WHOLE1 disease severity over the whole plant” value came out at 14.2 a, the “BS2 average disease severity of bacterial spot on two mostly infected leaves” value (shortened to “BS2 average disease severity”) was 33.0 a and the “WHOLE2 disease severity over the whole plant” value turned out to be 26.0 ab. In addition, in assay [2] (32 mg/L = 32 ppm), the “BS3 average disease severity of bacterial spot on two mostly infected leaves” value (“BS3 average disease severity” for short) was found to be 35.0 b, the “WHOLE3 disease severity over the whole plant” value was 26.0 ab, the AUDPC_BS is 439.3 b and the AUDPC_WHOLE is 322.7 ab. In assay [2] (64 mg/L = 64 ppm), the “BS1 average disease severity” value was determined as 30.0 a, the “WHOLE1 disease severity over the whole plant” value worked out at 10.0 ab, the “BS2 average disease severity” value is on record as 36.0 a and the “WHOLE2 disease severity over the whole plant” value is on record as 28.0 a. Further, in assay [2] (64 mg/L = 64 ppm), the “BS3 average disease severity” value is given as 54.0 a, the “WHOLE3 disease severity over the whole plant” value was 32.0 a, the AUDPC_BS turned out to be 546.0 a and the AUDPC_WHOLE is 343.0 a. Also, the “bacterial spot disease compared to CK” value in assay [2] (at 32 and 64 mg/L alone) is “failed to reduce the disease”.

In assay [3] (28° C. for 24 h, copper-resistant strain), `O=S(=O)([O-])[O-].[Cu+2]` [Copper (CuSO4), CuSO4, reference compound] had an MIC of 1024 µg/mL. In assay [3] (>99.9% of initial bacterial populations killed, no visible growth on NA), this molecule gave an MBC of 2048 µg/mL.

Take pyrrolidine: in assay [1] (Trial 1, cv. Red bounty), the AUDPC is listed as 466.1 c, the “BS last rating” value is recorded as 31.7 b % and the YIELD worked out at 3.95 a kg/plant. In assay [1] (Trial 2, cv. Varsity), the AUDPC was 401.8 b, the “BS last rating” value came out at 23.1 b % and the YIELD was determined as 3.99 a kg/plant. Also, in assay [1] (setting [4]), the “increase” value was 15.9%. Moreover, the “bacterial spot disease severity and AUDPC compared to the untreated control (CK)” value in assay [1] (piperidine at 64 mg/ml) is “significantly (P<0.05) reduced bacterial spot disease severity at the last rating and the overall disease progress”. Further, the “increase” value in assay [1] (setting [5]) is recorded as 5.6%. Moreover, in assay [2] (64 mg/L = 64 ppm), the “BS1 average disease severity” value is 14.0 bc, the “WHOLE1 disease severity over the whole plant” value is 5.1 bc, the “BS2 average disease severity” value was 15.2 bc and the “WHOLE2 disease severity over the whole plant” value was determined as 7.5 cde. For the same molecule, in assay [2] (64 mg/L = 64 ppm), the “BS3 average disease severity” value is 17.5 c, the “WHOLE3 disease severity over the whole plant” value amounted to 5.3 c, the AUDPC_BS came out at 219.6 c and the AUDPC_WHOLE was 88.7 days. Also, in assay [2] (128 mg/L = 128 ppm), the “BS1 average disease severity” value was determined as 7.5 c, the “WHOLE1 disease severity over the whole plant” value worked out at 1.5 c, the “BS2 average disease severity” value is 9.0 c and the “WHOLE2 disease severity over the whole plant” value was found to be 1.8 de. For the same molecule, in assay [2] (128 mg/L = 128 ppm), the “BS3 average disease severity” value stood at 11.0 c, the “WHOLE3 disease severity over the whole plant” value is listed as 3.8 c, the AUDPC_BS is on record as 127.8 cd and the AUDPC_WHOLE was 31.2 days. Moreover, the “bacterial spot disease compared to the untreated control (CK)” value in assay [2] (at 64 and 128 mg/L each) is recorded as “significantly (P<0.05) reduced bacterial spot disease”.

The MIC is the least concentration at which growth counts as inhibited. As a reminder, the MBC is the smallest concentration meeting the test's criterion for killing. Low values mean greater bactericidal potency, high ones weaker bactericidal potency.
